The results in this text go back to ChEMBL document CHEMBL1201862, “PubChem BioAssay data set” (2004).

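Cells were grown in 96-well plates and exposed to each compound for 48 hours at five concentrations; endpoints were interpolated linearly between bracketing concentrations, or set to the highest concentration if not reached. GI50 = concentration required for 50% inhibition of growth.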 Calls of active or inactive are those of the source. Rule as the data show it: active = GI50 up to about 1.1 µM and inactive = higher.

Test in all cases: growth of human tumour cells (NCI), 48 h
For assay [1], the system named is 786-0.
Assay [2] has as its system CCRF-CEM.
The test system of assay [3] is DU-145.
In assay [4] the test system is HCT-15.
The test system of assay [5] is HT-29.
Assay [6] deals with K562.
For assay [7], the system named is M14.
In assay [8] the test system is MOLT-4.
The test system of assay [9] is NCI-H226.
For assay [10], the system named is NCI-H23.
For assay [11], the system named is NCI-H460.
Assay [12] relates to OVCAR-3.
The test system of assay [13] is OVCAR-4.
Assay [14] relates to OVCAR-5.
In assay [15] the test system is RXF 393.
Assay [16] deals with SF-268.
Assay [17] concerns SF-539.
Assay [18] deals with SR.
Assay [19] concerns TK-10.
In assay [20] the test system is UACC-62.

Turning to `O=C1/C(=C2\SCC(=O)N2c2ccccc2)SC(=S)N1c1ccccc1`, the GI50 is 47.6 µM (inactive) in assay [1]; 37.2 µM (inactive) in assay [2]; 34 µM (inactive) in [3]; 43 µM in assay [4]; 56.1 µM (inactive) in assay [5]; 36.1 µM (inactive) in [6]. Further, the GI50 in assay [7] is > 100 µM (inactive); in assay [8], 17.7 µM (inactive); in assay [9], 20.5 µM (inactive); in assay [10], 72.6 µM (inactive); in [11] it was 39.1 µM (inactive); in assay [12], 27.8 µM (inactive). Further, the GI50 in assay [13] was 23.8 µM (inactive); in [14], > 100 µM (inactive); in [15], 34.4 µM (inactive); in [16] it was 41.8 µM (inactive); in [17], 26.4 µM (inactive); in assay [18], 12 µM (inactive). Further, the GI50 is 28.7 µM (inactive) in [19] and 55 µM (inactive) in assay [20].

Regarding `CC(C)C1=C(Cc2ccccc2)C(=O)O/C1=C\c1cc(Cl)c(O)c(Cl)c1`, the GI50 was 17.1 µM (inactive) in assay [1]; 16 µM (inactive) in [2]; 16 µM (inactive) in assay [3]; 18.2 µM in [4]; 16.9 µM (inactive) in assay [5]; 17.4 µM (inactive) in assay [6]. Moreover, the GI50 in assay [7] is 19.1 µM (inactive); in [8] it was 21.2 µM (inactive); in [9], 20.3 µM (inactive); in assay [10] it was 13.8 µM (inactive); in assay [11] it was 18.2 µM (inactive); in [12], 14.2 µM (inactive). Moreover, the GI50 is 15.6 µM (inactive) in [13]; 21.7 µM (inactive) in assay [14]; 16.4 µM (inactive) in assay [15]; 22.6 µM (inactive) in [16]; 21.5 µM (inactive) in assay [17]; 21.8 µM (inactive) in assay [18]. Further, the GI50 is 26 µM (inactive) in assay [19] and 16.9 µM (inactive) in [20].

For the molecule `O=C1c2c(Br)sc(Br)c2[C@H]2OC(=S)N[C@@H]12`, the GI50 is 11.3 µM (inactive) in assay [1]; 0.624 µM (active) in assay [2]; 12.8 µM (inactive) in assay [3]; 1.88 µM in [4]; 2 µM (inactive) in [5]; 2.29 µM (inactive) in assay [6]. The GI50 in assay [7] was 1.95 µM (inactive); in assay [8], 2.17 µM (inactive); in [9], 17.1 µM (inactive); in [10], 5.15 µM (inactive); in [11], 16.6 µM (inactive); in [12], 2.6 µM (inactive). Moreover, the GI50 in [13] was 6.07 µM (inactive); in assay [14], 17.1 µM (inactive); in [15], 3.14 µM (inactive); in [16], 3.27 µM (inactive); in assay [17], 16.6 µM (inactive); in assay [18] it was 1.67 µM (inactive). Moreover, the results for the GI50 in assay [19] and in assay [20] were 20.2 µM (inactive) and 11.8 µM (inactive), respectively.

As for `C=C(Cl)/C(=C/Cl)CCC(Br)C(C)(C)Cl.C=C(Cl)/C(=C\Cl)CCC(Br)C(C)(C)Cl` (stereo not given), the GI50 in assay [1] is > 10 µM (inactive); in assay [2], 2.66 µM (inactive); in [3] it was > 10 µM (inactive); in assay [4], > 10 µM; in assay [5], > 10 µM (inactive); in assay [6], 5.43 µM (inactive). Besides, the GI50 in assay [7] is > 10 µM (inactive); in [8], 3.1 µM (inactive); in [9], > 10 µM (inactive); in assay [10], > 10 µM (inactive); in assay [11] it was > 10 µM (inactive); in assay [12] it was > 10 µM (inactive). In addition, the GI50 in [13] is > 10 µM (inactive); in [14] it was > 10 µM (inactive); in assay [15] it was > 10 µM (inactive); in assay [16], > 10 µM (inactive); in assay [17], > 10 µM (inactive); in assay [18], 5.45 µM (inactive). In addition, the GI50 in [19] and in assay [20] was > 10 µM (inactive) throughout.

Take `Cc1cc(/N=C2\C=C(Nc3cc(C)on3)C(=O)c3ccccc32)no1`: the GI50 is 38.1 µM (inactive) in assay [1]; > 100 µM (inactive) in assay [2]; 52.5 µM (inactive) in [3]; 48.1 µM in [4]; 49.7 µM (inactive) in assay [5]; > 100 µM (inactive) in assay [6]. Moreover, the GI50 in assay [7] is 34.7 µM (inactive); in [8] it was > 100 µM (inactive); in assay [9], > 92 µM (inactive); in [10], 4.69 µM (inactive); in assay [11], > 67.8 µM (inactive); in [12] it was > 100 µM (inactive). In addition, the GI50 is > 100 µM (inactive) in assay [13]; > 76 µM (inactive) in [14]; 30.3 µM (inactive) in assay [15]; 36.9 µM (inactive) in [16]; 31.6 µM (inactive) in assay [17]; > 100 µM (inactive) in [18]. For the same molecule, the GI50 was 55 µM (inactive) in [19] and 12 µM (inactive) in assay [20].

Turning to `CC1OC(OC2CC(O)(C(=O)CO)Cc3c(O)c4c(c(O)c32)C(=O)c2ccccc2C4=O)CC(N)C1O` (stereo not given), the GI50 in assay [1] is < 0.01 µM (active); in assay [2] it was < 0.01 µM (active); in [3] it was 0.0101 µM (active); in [4], 0.0708 µM; in assay [5], < 0.0135 µM (active); in assay [6], < 0.0118 µM (active). The GI50 is < 0.015 µM (active) in assay [7]; < 0.01 µM (active) in assay [8]; < 0.01 µM (active) in assay [9]; 0.0162 µM (active) in assay [10]; < 0.01 µM (active) in [11]; 0.106 µM (active) in assay [12]. In addition, the GI50 in [13] was 0.0813 µM (active); in assay [14] it was 0.0242 µM (active); in assay [15] it was 0.0162 µM (active); in assay [16], < 0.0163 µM (active); in [17], < 0.0112 µM (active); in [18], < 0.01 µM (active). For the same molecule, the GI50 in assay [19] was 0.0559 µM (active); in [20], 0.0101 µM (active).

As for `COc1ccc2c(-c3csc(-c4c[nH]c5ccccc45)n3)c[nH]c2c1`, the GI50 in assay [1] is 5.53 µM (inactive); in [2], 4.36 µM (inactive); in assay [3], 9.18 µM (inactive); in [4] it was 1.45 µM; in [5], 2.34 µM (inactive); in [6], 3.44 µM (inactive). For the same molecule, the GI50 in [7] is 7.76 µM (inactive); in [8], 3.86 µM (inactive); in assay [9], 9.4 µM (inactive); in assay [10], 11.6 µM (inactive); in assay [11], 2.29 µM (inactive); in [12] it was 13.9 µM (inactive). Also, the GI50 in assay [13] was 11 µM (inactive); in [14], 7.8 µM (inactive); in [15], 5.01 µM (inactive); in assay [16] it was 4.14 µM (inactive); in assay [17], 5.73 µM (inactive); in [18], 1.56 µM (inactive). The GI50 was 9.2 µM (inactive) in assay [19] and 11.5 µM (inactive) in assay [20].
